Data: US20160024092A1, “INTRAVENOUS FORMULATIONS OF NEUROKININ-1 ANTAGONISTS” (OPKO Health, Inc., priority 2009, published 2016)
Values after ≈ are worked out from the molar mass of the structure shown. Like-named read-outs stand apart in the source and are kept apart here.

Experiments:
[1] = in vivo
pKa of Compound 1 = assay type: physicochemical
red blood cells = assay: Hemolytic testing in rats after intravenous administration (hemoglobin in urine, Hemastix reagent strips); assay type: in vivo, rat; design: key: Hemastix scale: 0=negative, 1=non-hemolyzed trace … 6=large+++; settings: 1-2 min slow-hand bolus, 10 mg/mL drug in 22% Solutol HS15, pH 7.0
Excerpt: The term “hemolysis” as used herein means destruction of red blood cells which leads to the release of hemoglobin from within the red blood cells into the blood plasma. Hemolysis can be measured by methods well known in the art, e.g., Hemastix® reagent strips (Bayer Corp., Elkhart, Ind.) which detect blood in urine. The
Hemastix® reagent strips turn from yellow to dark green depending upon the amount of hemoglobin found in the urine. The Hemastix® scale is as follows: 0=negative, 1=non-hemolyzed trace, 3=hemolyzed trace, 4=small+, 5=moderate++, and 6=large+++.
Urine samples from the rats were assessed for hemolysis using Hemastix® reagent strips (No. 2190, Bayer Corp., Elkhart Ind.). […] The Hemastix® reagent strips detect the peroxide-like activity of hemoglobin. The strips turn from yellow to dark green depending upon the amount of hemoglobin found in the urine. The Hemastix® scale is as follows: 0=negative, 1=non-hemolyzed trace, 3=hemolyzed trace, 4=small+, 5=moderate++, and 6=large+++.
The methodology for this study was to administer (into the tail vein of a rat) each formulation over 15 minutes by intravenous infusion using an infusion pump or to administer the formulation within two minutes by bolus route using a syringe. Urine was tested for the presence of free hemoglobin using the pooled urine collection method at the six-hour interval. For the six hour pooled urine collection, rats were dosed and placed in a metabolism cage. Six hour post dose, the rats were euthanized by carbon dioxide over-inhalation, and the urine sample was collected. A minimum of five subjects were tested for each formulation and the urine samples were analyzed for hemolysis using Hemastix® reagent strips as indicated in Comparative Example 2.
[…] If the rat voided any urine in the cage, the urine was analyzed using Hemastix® reagent strips to determine the presence of hemoglobinuria.
The methodology for this example was to administer each formulation over 15 minutes by i.v. infusion using an infusion pump or to administer the formulations within 2 minutes by bolus injection using a syringe and delivering the formulation into the tail vein of a rat. Urine was tested by dipstick for the presence of free hemoglobin using the pooled urine collection method at the 6-hour interval.

[2] = Equilibrium solubility of Compound 1 (HPLC); assay type: physicochemical; settings: for solubility thermodynamic: thermodynamic from solid, pH 7.0

For C[C@@H](OC[C@@]1(c2ccccc2)CC[C@]2(CCC(=O)N2)CN1)c1cc(C(F)(F)F)cc(C(F)(F)F)c1 [Compound 1, (5S,8S)-8-[{(1R)-1-(3,5-Bis-(trifluoromethyl)phenyl)-ethoxy}-methyl]-8-phenyl-1,7-diazaspiro[4.5]decan-2-one], the “time at which half concentration is achieved” value [1] was “around 180 hrs”, the pKa (pKa of Compound 1) was 6.9 and the “Hemolysis (Female rats)” value (red blood cells; 10 mg/kg, 15 min) was 1. The “Hemolysis (Male rats)” value (red blood cells; 10 mg/kg, 15 min) was 3, the “Hemolysis (Female rats)” value (red blood cells; 10 mg/kg, 30 min) was 1 and the “Hemolysis (Male rats)” value (red blood cells; 10 mg/kg, 30 min) was 0. For the same compound, the “Hemolysis (Female rats)” value (red blood cells; 10 mg/kg, 60 min) was 0, the “Hemolysis (Male rats)” value (red blood cells; 10 mg/kg, 60 min) was 0 and the “Hemolysis (Female rats)” value (red blood cells; 20 mg/kg, 15 min) was 3. The “Hemolysis (Male rats)” value (red blood cells; 20 mg/kg, 15 min) was 3, the “Hemolysis (Female rats)” value (red blood cells; 20 mg/kg, 30 min) was 0 and the “Hemolysis (Male rats)” value (red blood cells; 20 mg/kg, 30 min) was 3. The “Hemolysis (Female rats)” value (red blood cells; 20 mg/kg, 60 min) was 0, the “Hemolysis (Male rats)” value (red blood cells; 20 mg/kg, 60 min) was 0 and the “Hemolysis (Female rats)” value (red blood cells; 30 mg/kg, 15 min) was 3. The “Hemolysis (Male rats)” value (red blood cells; 30 mg/kg, 15 min) was 3, the “Hemolysis (Female rats)” value (red blood cells; 30 mg/kg, 30 min) was 2 and the “Hemolysis (Male rats)” value (red blood cells; 30 mg/kg, 30 min) was 0. For the same compound, the “Hemolysis (Female rats)” value (red blood cells; 30 mg/kg, 60 min) was 0, the “Hemolysis (Male rats)” value (red blood cells; 30 mg/kg, 60 min) was 0 and the solubility thermodynamic ([2]; 16% Captisol (sulfobutyl ether beta-cyclodextrin), aqueous with cosolvent or surfactant or cyclodextrin, 16% Captisol) was less than 0.006 mg/mL. The solubility ([2]; 22% Solutol, aqueous with cosolvent or surfactant or cyclodextrin) was 50 mg/mL (≈ 99.9 mM), the solubility thermodynamic ([2]; aqueous with cosolvent or surfactant or cyclodextrin, 20% Solutol) was roughly 50 mg/mL (≈ 99.9 mM) and the solubility ([2]; pH 7.4, aqueous buffer, read-out: solubility at the physiological pH of 7.4) was less than 0.004 mg/mL.
